# Results: patent publication US5817669A, “Compounds, processes for the preparation thereof and anti-tumor agents” (Dainippon Pharmaceutical Co., Ltd., priority 1994, dated 1998)
# Read-outs that look alike come from different tables or passages of the source.
# Experiments:
# [1] = test system: WiDr human colorectal cancer; assay: In vitro anti-tumor activity against WiDr human colorectal cancer (MTT); type: cell-based; settings: 72 h
# Description: (§1) A culture medium containing 500 to 2,000 human cancer cells was put in an amount of 0.1 ml in each well of 96-well plate, and the cells were cultured for 20 hours under a condition of 37° C. and 5% carbon dioxide gas in air. After the culturing, a solution of test compounds of predetermined concentration was added, and then, the cells were cultured for further 72 hours. After the culturing, an MTT (5 mg/ml) solution was added in an amount of 0.01 ml in the respective wells, and the cells were cultured for further 4 hours. The supernatants of the culture medium were removed by suction, and then, 0.1 ml of dimethyl sulfoxide was put in respective well to dissolve the formed formazan, and, moreover, 0.1 ml of dimethyl sulfoxide was added.
# HMV2 human melanoma = assay: In vitro anti-tumor activity against HMV-2 human melanoma (MTT); type: cell-based; settings: HMV-2, 72 h
# Description: as §1
# [2] = test system: MKN45 human stomach cancer; assay: In vitro anti-tumor activity against MKN45 human stomach cancer (MTT); type: cell-based
# Description: as §1
# A427 human lung cancer = assay: In vitro anti-tumor activity against A-427 human lung cancer (MTT); type: cell-based; settings: A-427, 72 h
# Description: as §1
# [3] = test system: murine P388 lymphocytic leukemia cells; assay: In vitro anti-tumor activity against murine P388 lymphocytic leukemia cells (MTT, 72 h); type: cell-based; settings: Mus musculus, read-out: IC50 (50% proliferation inhibitory concentration)
# Description: Test compounds were tested for anti-tumor activity according to MTT [3-(4,5-dimethylthiazol-2-yl)-2,5-diphenyltetrazolium bromide] method, using murine P388 lymphocytic leukemia cells. […] The culture medium was centrifuged (4° C., 2,000 rpm for 20 minutes), and thus, the supernatants were removed by suction. Then, 0.1 ml of dimethyl sulfoxide was put in each well to dissolve the formed formazan, and, subsequently, another 0.1 ml of dimethyl sulfoxide was added. The absorbance (OD) of each of the obtained solutions was measured by use of Multiskan Bichromatic (main wavelength 570 nm, sub-wavelength 690 nm). […] IC50 :μg/ml) were calculated by the least squares method.
# [4] = test system: KB human nasopharynx cancer; assay: In vitro anti-tumor activity against KB human nasopharynx cancer (MTT); type: cell-based; settings: 72 h
# Description: as §1
# [5] = test system: colon 26 murine tumor cells; assay: Tumor growth inhibition effect on colon 26 murine tumor cells implanted mice; type: in vivo, SLC: CDF1 mice
# Description: A 2% brei of colon 26 murine tumor cells was intracutaneously implanted each 0.1 ml in the abdominal part of SLC: CDF1 female mice (7 to 9 weeks old, 7 animals per one group). […] The obtained solutions were intraperitoneally (ip) administered each 0.2 ml once a day, from the day (1st day) following the implantation to the 9th day. On the 21st or 22nd day after the implantation, tumor weight was estimated from tumor diameters, and thus, the tumor growth inhibition rate (IR %) of the drug administered group in comparison with the control group was calculated according to the following equation. IR (%)=[1-{(MTW in the treated group)/(MTW in the control group)}]×10 0 MTW: mean tumor weight
# [6] = test system: murine P388 lymphocytic leukemia cells; assay: Increases in life span of mice implanted with murine P388 lymphocytic leukemia cells; type: in vivo, SLC: BDF1 mice; settings: Mus musculus, P388, ip, 720 h
# Description: 1×10^6 murine P388 lymphocytic leukemia cells were intraperitoneally implanted in each of SLC: BDF1 mice (8 to 10 weeks old, female, 7 animals per one group). A test compound (drug) was either dissolved in 0.1 N--NaOH or suspended in 0.4% carboxymethylcellulose solution, and the resultant solution or suspension was diluted with distilled water or 0.4% carboxymethylcellulose solution so as to give predetermined concentrations for administration. The obtained solution was intraperitoneally (ip) administered twice, namely on the day following the implantation (1st day) and the 5th day, each 0.2 ml. The life and death of the mice were observed over a period of 30 days, and the median survival time (hereinafter referred to as MST) was determined for each group, and, thus, the increase in life span (ILS; %) was calculated according to the following equation:
# ILS (%)=[{(MST of the test group)/(MST of the control group)}-1]×100
# Drug effect was judged in the following manner, according to the criterion of U.S. National Cancer Institute (NCI):
# ILS=75% or higher: ++ (remarkably effective);
# 20 to 74%: + (effective);
# 19% or lower: - (ineffective)
# [7] = test system: AZ521 human stomach cancer; assay: In vitro anti-tumor activity against AZ-521 human stomach cancer (MTT); type: cell-based; settings: AZ-521, 72 h
# Description: as §1
# Acute toxicity = settings: mouse, in vivo, mice, 14th day
# Description: Solutions of test compounds in predetermined concentrations were administered (0.1 ml/10 g body weight) to female BALB/c CrSlc mice (5 to 10 animals per one group, 10 weeks old) respectively, and, thus, LD50 values were calculated from the mortalities of the mice on the 14th day after the administration.
# C33A human cervix cancer = assay: In vitro anti-tumor activity against C-33A human cervix cancer (MTT); type: cell-based; settings: 72 h
# Description: as §1
# [8] = MKN-45, MKN45, 72 h, MTT, read-out: IC50
# [9] = NCI criterion, ip, 25 mg/kg, read-out: Evaluation
# [10] = ip, 12.5 mg/kg, days 1 and 5, in solution, read-out: ILS (%) (in solution)
# [11] = ip, 25 mg/kg, days 1 and 5, in solution, read-out: ILS (%) (in solution)
# [12] = Intravenous administration (iv)
# [13] = read-out: ILS (%) (in solution)
smiles,measurement,setting,value
CNC1(C)CCN(c2ccc3c(=O)c(C(=O)O)cn(-c4nccs4)c3n2)C1 (stereo not drawn) [Compound 4],IC50,"[1]; MTT, read-out: IC50",0.392 µg/mL
same,IC50,"HMV2 human melanoma; MTT, read-out: IC50",0.187 µg/mL
same,IC50,[2]; [8],0.199 µg/mL
same,IC50,"A427 human lung cancer; MTT, read-out: IC50",0.194 µg/mL
same,IC50,"[3]; murine P388 cells, 72 h, MTT",0.0175 µg/mL
same,IC50,"[4]; KB, MTT, read-out: IC50",0.172 µg/mL
same,inhibition in vivo at 1.56 mg/kg,"[5]; Mus musculus, Colon 26, 504 h, ip, 1.56 mg/kg once a day, days 1-9, day 21 or 22, read-out: Tumor growth inhibition rate IR (%)",64%
same,inhibition in vivo at 3.13 mg/kg,"[5]; Mus musculus, Colon 26, 504 h, ip, 3.13 mg/kg once a day, days 1-9, day 21 or 22, read-out: Tumor growth inhibition rate IR (%)",89%
same,ILS at 3.13 mg/kg,"[6]; NCI criterion, ip, 3.13 mg/kg, read-out: Evaluation",20 to 74%
same,ILS at 6.25 mg/kg,"[6]; NCI criterion, ip, 6.25 mg/kg, read-out: Evaluation",> 75%
same,ILS at 12.5 mg/kg,"[6]; NCI criterion, ip, 12.5 mg/kg, read-out: Evaluation",> 75%
same,ILS at 25 mg/kg,[6]; [9],> 75%
same,ILS at 3.13 mg/kg,"[6]; ip, 3.13 mg/kg, days 1 and 5, in solution, read-out: ILS (%) (in solution)",63%
same,ILS at 3.13 mg/kg,"[6]; ip, 3.13 mg/kg, days 1 and 5, in suspension, read-out: ILS (%) (in suspension)",63%
same,ILS at 6.25 mg/kg,"[6]; ip, 6.25 mg/kg, days 1 and 5, in solution, read-out: ILS (%) (in solution)",88%
same,ILS at 12.5 mg/kg,[6]; [10],125%
same,ILS at 12.5 mg/kg,"[6]; ip, 12.5 mg/kg, days 1 and 5, in suspension, read-out: ILS (%) (in suspension)",125%
same,ILS at 25 mg/kg,[6]; [11],150%
same,IC50,"[7]; MTT, read-out: IC50",0.1 µg/mL
same,LD50 at 336 h,Acute toxicity; [12],> 100 mg/kg
same,IC50,"C33A human cervix cancer; C-33A, MTT, read-out: IC50",0.144 µg/mL
"O=C(O)c1cn(-c2nccs2)c2nc(N3CCCC3)c(F)cc2c1=O [Compound A, reference compound]",IC50,"[1]; MTT, read-out: IC50",4.09 µg/mL
same,IC50,"HMV2 human melanoma; MTT, read-out: IC50",2.88 µg/mL
same,IC50,[2]; [8],1.27 µg/mL
same,IC50,"A427 human lung cancer; MTT, read-out: IC50",0.854 µg/mL
same,IC50,"[3]; murine P388 cells, 72 h, MTT",0.0942 µg/mL
same,IC50,"[4]; KB, MTT, read-out: IC50",1.94 µg/mL
same,inhibition in vivo at 12.5 mg/kg,"[5]; Mus musculus, Colon 26, 504 h, ip, 12.5 mg/kg once a day, days 1-9, day 21 or 22, read-out: Tumor growth inhibition rate IR (%)",23%
same,"tumor growth inhibition (IR), colon 26, in words",[5]; in words,apparently inferior to the compounds of this invention in view of both doses and inhibition rates
same,ILS at 25 mg/kg,[6]; [9],20 to 74%
same,ILS at 50 mg/kg,"[6]; NCI criterion, ip, read-out: Evaluation",20 to 74%
same,ILS at 12.5 mg/kg,[6]; [10],0%
same,ILS at 25 mg/kg,[6]; [11],25%
same,ILS at 50 mg/kg,"[6]; ip, days 1 and 5, in solution, read-out: ILS (%) (in solution)",38%
same,IC50,"[7]; MTT, read-out: IC50",0.797 µg/mL
same,IC50,"C33A human cervix cancer; C-33A, MTT, read-out: IC50",0.651 µg/mL
"COc1cc([C@@H]2c3cc4c(cc3[C@@H](O[C@@H]3O[C@@H]5CO[C@@H](C)O[C@H]5[C@H](O)[C@H]3O)[C@H]3COC(=O)[C@H]23)OCO4)cc(OC)c1O [Compound H, Etoposide, reference compound]",IC50,[1],1.63 µg/mL
same,IC50,HMV2 human melanoma,0.298 µg/mL
same,IC50,"[2]; MKN-45, 72 h",0.49 µg/mL
same,IC50,A427 human lung cancer,0.095 µg/mL
same,IC50,"[3]; P388, 72 h",0.00849 µg/mL
same,IC50,[4],0.201 µg/mL
same,inhibition in vivo at 12.5 mg/kg,"[5]; Mus musculus, Colon 26, ip, 504 h, read-out: Tumor growth inhibition rate IR (%)",57%
same,ILS at 1.56 mg/kg,[6]; read-out: Evaluation,20 to 74%
same,ILS at 3.13 mg/kg,[6]; read-out: Evaluation,> 75%
same,ILS at 6.25 mg/kg,[6]; read-out: Evaluation,> 75%
same,ILS at 12.5 mg/kg,[6]; read-out: Evaluation,> 75%
same,ILS at 25 mg/kg,[6]; read-out: Evaluation,> 75%
same,ILS at 1.56 mg/kg,[6]; [13],50%
same,ILS at 3.13 mg/kg,[6]; [13],75%
same,ILS at 6.25 mg/kg,[6]; [13],100%
same,ILS at 12.5 mg/kg,[6]; [13],150%
same,ILS at 25 mg/kg,[6]; [13],> 275%
same,IC50,[7],0.08 µg/mL
same,LD50 at 336 h,Acute toxicity; Intraperitoneal administration (ip),71 mg/kg
same,LD50 at 336 h,Acute toxicity; [12],123 mg/kg
same,IC50,C33A human cervix cancer; C-33-A,0.084 µg/mL
